Test results reported in PubChem BioAssay (NCI).
“And” between values parts separate entries of the source, which are not always exact repeats. Equal entries are not always repeated.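 A five-concentration, 48-hour dose response in 96-well plates underlies each endpoint, interpolated linearly between surrounding concentrations. GI50 = concentration required for 50% inhibition of growth. At the TGI there is no net growth.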

Legend:
Assay in all cases: NCI tumour cell line growth inhibition, 48 h
[1] = test system: EKVX NSCLC
[2] = test system: COLO 205 colon
[3] = test system: CAKI-1 renal
[4] = test system: RXF-631 renal
[5] = test system: UACC-257 melanoma
[6] = test system: HT29 colon
[7] = test system: LXFL 529 NSCLC
[8] = test system: OVCAR-8 ovarian
[9] = test system: NCI-H226 lung
[10] = test system: ACHN renal
[11] = test system: NCI-H522 lung
[12] = test system: P388/ADR leukemia
[13] = test system: K-562 leukemia
[14] = test system: DMS 114 small cell lung
[15] = test system: SN12C renal
[16] = test system: HOP-62 NSCLC
[17] = test system: CCRF-CEM leukemia
[18] = test system: NCI-H23 lung
[19] = test system: OVCAR-4 ovarian
[20] = test system: SK-MEL-2 melanoma
[21] = test system: SF-268 CNS
[22] = test system: A498 renal
[23] = test system: DMS 273 small cell lung
[24] = test system: P388 leukemia
[25] = test system: SNB-78 CNS
[26] = test system: SF-539 CNS
[27] = test system: SK-OV-3 ovarian
[28] = test system: MOLT-4 leukemia
[29] = test system: LOX IMVI melanoma
[30] = test system: RPMI-8226 leukemia
[31] = test system: SR leukemia
[32] = test system: NCI-H460 lung
[33] = test system: A549 NSCLC
[34] = test system: SK-MEL-5 melanoma
[35] = test system: DLD-1 colon
[36] = test system: HOP-18 NSCLC
[37] = test system: SK-MEL-28 melanoma
[38] = test system: SN12K1 renal
[39] = test system: NCI/ADR-RES ovarian
[40] = test system: RXF 393 renal
[41] = test system: OVCAR-3 ovarian
[42] = test system: SW-620 colon
[43] = test system: M14 melanoma
[44] = test system: OVCAR-5 ovarian
[45] = test system: SF-295 CNS
[46] = test system: HCT-116 colon
[47] = test system: 786-0 renal
[48] = test system: MCF7 breast
[49] = test system: TK-10 renal
[50] = test system: HCT-15 colon
[51] = test system: HL-60(TB) leukemia
[52] = test system: M19-MEL melanoma
[53] = test system: KM12 colon
[54] = test system: HOP-92 NSCLC
[55] = test system: IGROV1 ovarian
[56] = test system: KM20L2 colon
[57] = test system: UACC-62 melanoma
[58] = test system: U251 CNS
[59] = test system: UO-31 renal
[60] = test system: SNB-75 CNS
[61] = test system: SNB-19 CNS
[62] = test system: HCC-2998 colon
[63] = test system: XF 498 CNS
[64] = test system: MALME-3M melanoma

With `CSCS(=O)C[C@H](CO)NC(=O)/C=C/c1c(C)[nH]c(=O)[nH]c1=O` (stereo not given in full) the GI50 [1] was 3.3 µM, the TGI [1] was 12.7 µM and 4.98 µM and the GI50 [2] was 3.16 µM. The GI50 [3] was 2740 nM, the TGI [4] was 14.7 µM and the GI50 [5] was 2220 nM. The TGI [5] was 7.79 µM and 4.86 µM, the GI50 [6] was 2300 nM and the TGI [6] was 10 µM and 12.2 µM. For the same molecule, the TGI [7] was 7.65 µM, the GI50 [8] was 1020 nM and the TGI [8] was 3.96 µM and 4.35 µM. The TGI [9] was 3.42 µM, the TGI [10] was 6.86 µM and the GI50 [11] was 1350 nM. The TGI [11] was 3.3 µM and 2.36 µM, the TGI [12] was 7.12 µM and the GI50 [13] was 1720 nM. For the same molecule, the TGI [13] was 8.83 µM and 5.01 µM, the GI50 [14] was 1700 nM and the TGI [14] was 6.61 µM and 3.1 µM. For the same molecule, the GI50 [15] was 1460 nM, the TGI [15] was 7.79 µM and 5.49 µM and the GI50 [16] was 1570 nM. The TGI [16] was 4.92 µM and 3.67 µM, the GI50 [17] was 1460 nM and the TGI [17] was 8.69 µM and 4.02 µM. For the same molecule, the GI50 [18] was 1840 nM, the TGI [18] was 4.95 µM and 2.47 µM and the GI50 [19] was 296 nM. The TGI [19] was 1070 nM and 994 nM, the GI50 [20] was 1650 nM and the TGI [20] was 4.59 µM and 2.75 µM. For the same molecule, the GI50 [21] was 571 nM, the TGI [21] was 3.86 µM and 1.37 µM and the GI50 [22] was 434 nM. The TGI [22] was 2000 nM and 2060 nM, the GI50 [23] was 3.38 µM and the TGI [23] was 28.1 µM and 4.54 µM. The TGI [24] was 1.78 µM, the GI50 [25] was 919 nM and the TGI [25] was 5.91 µM and 2.74 µM. For the same molecule, the GI50 [26] was 1200 nM, the TGI [26] was 4.1 µM and 2.66 µM and the TGI [27] was 6.11 µM and 6.96 µM. The TGI [28] was 6.73 µM and 5.09 µM, the GI50 [29] was 449 nM and the TGI [29] was 2.07 µM and 3.87 µM. It also gave a TGI [30] of 6.71 µM, a TGI [31] of 22.8 µM and a GI50 [32] of 1190 nM. For the same molecule, the TGI [32] was > 27.6 µM and 7.55 µM, the GI50 [33] was 1990 nM and the TGI [33] was 8.93 µM and 5.64 µM. The GI50 [34] was 1700 nM, the TGI [34] was 5.07 µM and 5.39 µM and the GI50 [35] was 2230 nM. For the same molecule, the TGI [35] was > 23.4 µM and 7.25 µM, the GI50 [36] was 1220 nM and the TGI [36] was > 30.8 µM and 5.85 µM. For the same molecule, the GI50 [37] was 1890 nM, the TGI [37] was 7.94 µM and 3.51 µM and the TGI [38] was 4.42 µM. The TGI [39] was 6.07 µM, the GI50 [40] was 1280 nM and the TGI [40] was 3.7 µM and 2.97 µM. The GI50 [41] was 1890 nM, the TGI [41] was 4.63 µM and 3.98 µM and the GI50 [42] was 3.35 µM. For the same molecule, the TGI [42] was > 54.6 µM and 25.4 µM, the TGI [43] was 2790 nM and the GI50 [44] was 2700 nM. The TGI [44] was 9.91 µM and 7.24 µM, the GI50 [45] was 406 nM and the TGI [45] was 2640 nM and 2370 nM. For the same molecule, the GI50 [46] was 3.16 µM, the TGI [47] was 5.23 µM and the TGI [48] was 6.86 µM. The TGI [49] was > 29.5 µM, the GI50 [50] was 2930 nM and the TGI [50] was 13.6 µM and 6.92 µM. The GI50 [51] was 2230 nM, the TGI [51] was 4.96 µM and 3.44 µM and the GI50 [52] was 2380 nM. For the same molecule, the TGI [52] was 15.2 µM and 3.32 µM, the GI50 [53] was 1950 nM and the TGI [53] was 7.6 µM and 3.98 µM. For the same molecule, the GI50 [54] was 815 nM, the TGI [54] was 4.05 µM and 0.778 µM and the GI50 [55] was 1780 nM. For the same molecule, the TGI [55] was 9.35 µM and 14.1 µM, the GI50 [56] was 2070 nM and the TGI [56] was 12 µM and 4.35 µM. The GI50 [57] was 1390 nM, the TGI [57] was 4.56 µM and 3.44 µM and the GI50 [58] was 498 nM and 297 nM. For the same molecule, the TGI [58] was 3.63 µM and 1.91 µM, the GI50 [59] was 2970 nM and the TGI [59] was 10.2 µM and 4.26 µM. For the same molecule, the GI50 [60] was 1140 nM, the TGI [60] was 4.15 µM and 1.03 µM and the GI50 [61] was 605 nM. For the same molecule, the TGI [61] was 8.35 µM and 5.11 µM, the GI50 [62] was 2500 nM and the TGI [62] was 6.27 µM and 4.1 µM. For the same molecule, the TGI [63] was 0.548 µM, the GI50 [64] was 1080 nM and the TGI [64] was 3.08 µM and 2.05 µM.

`O=C1C=CC2OC(c3ccccc3)C(O)C2O1` (stereo not given) showed a TGI [1] of 15.4 µM, a TGI [2] of 11 µM and a TGI [3] of 13 µM. The TGI [5] was 18.5 µM, the TGI [6] was 35.2 µM and the TGI [8] was 20.2 µM. The TGI [9] was 5.2 µM, the TGI [11] was 4 µM and the TGI [12] was 7.63 µM. It also gave a TGI [13] of 59.7 µM, a TGI [14] of 14.7 µM and a TGI [15] of 22.9 µM. For the same molecule, the TGI [16] was 26 µM, the TGI [17] was 11.6 µM and the TGI [18] was 12.6 µM. For the same molecule, the TGI [19] was 17900 nM, the TGI [20] was 6.63 µM and the TGI [21] was 15.6 µM. It also gave a TGI [22] of 5850 nM, a TGI [23] of 18.2 µM and a TGI [24] of 6.53 µM. It also gave a TGI [25] of 46.3 µM, a TGI [26] of 14.1 µM and a TGI [27] of 39.5 µM. It also gave a TGI [28] of 4.41 µM, a TGI [29] of 8.18 µM and a TGI [30] of 7.65 µM. For the same molecule, the TGI [32] was 16.2 µM, the TGI [33] was 14.5 µM and the TGI [34] was 17.1 µM. It also gave a TGI [35] of 13.9 µM, a TGI [36] of 1.81 µM and a TGI [37] of 11.8 µM. It also gave a TGI [38] of 14.9 µM, a TGI [39] of 15.2 µM and a TGI [40] of 4.47 µM. It also gave a TGI [41] of 10.7 µM, a TGI [42] of 9.87 µM and a TGI [44] of 21.5 µM. The TGI [45] was 19600 nM, the TGI [46] was 10.6 µM and the TGI [48] was 16.8 µM. It also gave a TGI [50] of 14.4 µM, a TGI [51] of 3.29 µM and a TGI [52] of 30.8 µM. It also gave a TGI [53] of 17.3 µM, a TGI [54] of 10.2 µM and a TGI [55] of 29.1 µM. It also gave a TGI [56] of 23.8 µM, a TGI [57] of 20.9 µM and a TGI [58] of 22.4 µM. The TGI [59] was 21.1 µM, the TGI [60] was 31 µM and the TGI [61] was 30.2 µM. It also gave a TGI [62] of 10.9 µM, a TGI [63] of 10.1 µM and a TGI [64] of 11.3 µM.
